Results reported in publication PMC7762994 (Viruses, 2020).

Tests used:
HYOU1 = molecular target: T1, HYOU1 (Homo sapiens, UniProt Q9Y4L1); assay: 2D-TPP in U87 cells; format: binding; settings: 1.5 h, stabilized, read-out: pEC50 of protein stabilization, HYOU1 (converted)
T1 construct: endogenous in cells; host or cells: U87 cells

Hsp70 = molecular target: T2, Hsp70 (Homo sapiens, UniProt P0DMV8); assay: Cellular thermal shift assay; format: binding; settings: U87 and SW13 cells, 56 and 59 °C, CETSA-TR at 20 μM and dose dependently
T2 construct: endogenous in cells; host or cells: U87 or SW13 cells
T2 sequence (P0DMV8 whole entry): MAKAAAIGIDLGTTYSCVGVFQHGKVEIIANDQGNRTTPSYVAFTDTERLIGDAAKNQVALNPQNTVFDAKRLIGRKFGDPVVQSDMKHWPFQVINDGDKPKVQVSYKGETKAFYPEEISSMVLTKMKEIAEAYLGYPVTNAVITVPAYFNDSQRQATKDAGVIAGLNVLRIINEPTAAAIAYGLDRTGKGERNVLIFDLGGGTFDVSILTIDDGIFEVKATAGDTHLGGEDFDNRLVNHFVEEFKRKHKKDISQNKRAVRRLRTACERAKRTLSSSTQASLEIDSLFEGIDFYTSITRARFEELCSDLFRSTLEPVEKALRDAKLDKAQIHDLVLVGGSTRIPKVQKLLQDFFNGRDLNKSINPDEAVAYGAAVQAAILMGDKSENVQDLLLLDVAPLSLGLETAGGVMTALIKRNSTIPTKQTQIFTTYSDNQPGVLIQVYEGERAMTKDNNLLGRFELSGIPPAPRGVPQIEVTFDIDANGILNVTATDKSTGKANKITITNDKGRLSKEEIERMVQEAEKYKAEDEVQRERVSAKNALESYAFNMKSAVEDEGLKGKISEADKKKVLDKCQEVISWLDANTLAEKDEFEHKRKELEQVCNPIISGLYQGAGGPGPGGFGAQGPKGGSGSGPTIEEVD

HSPA1A = HSPA1A (Homo sapiens, UniProt P0DMV8); assay: TPP-TR in HAZV-infected SW13 cells; settings: 20 μM, 4 h
HSPA1A, sequence (P0DMV8 whole entry): as above

HSP90B1 = molecular target: T3, HSP90B1 (Homo sapiens, UniProt P14625); assay: 2D-TPP in U87 cells; format: binding; settings: 1.5 h, stabilized, read-out: pEC50 of protein stabilization, HSP90B1 (converted)
T3 construct: endogenous in cells; host or cells: U87 cells
T3 sequence (P14625 22-803): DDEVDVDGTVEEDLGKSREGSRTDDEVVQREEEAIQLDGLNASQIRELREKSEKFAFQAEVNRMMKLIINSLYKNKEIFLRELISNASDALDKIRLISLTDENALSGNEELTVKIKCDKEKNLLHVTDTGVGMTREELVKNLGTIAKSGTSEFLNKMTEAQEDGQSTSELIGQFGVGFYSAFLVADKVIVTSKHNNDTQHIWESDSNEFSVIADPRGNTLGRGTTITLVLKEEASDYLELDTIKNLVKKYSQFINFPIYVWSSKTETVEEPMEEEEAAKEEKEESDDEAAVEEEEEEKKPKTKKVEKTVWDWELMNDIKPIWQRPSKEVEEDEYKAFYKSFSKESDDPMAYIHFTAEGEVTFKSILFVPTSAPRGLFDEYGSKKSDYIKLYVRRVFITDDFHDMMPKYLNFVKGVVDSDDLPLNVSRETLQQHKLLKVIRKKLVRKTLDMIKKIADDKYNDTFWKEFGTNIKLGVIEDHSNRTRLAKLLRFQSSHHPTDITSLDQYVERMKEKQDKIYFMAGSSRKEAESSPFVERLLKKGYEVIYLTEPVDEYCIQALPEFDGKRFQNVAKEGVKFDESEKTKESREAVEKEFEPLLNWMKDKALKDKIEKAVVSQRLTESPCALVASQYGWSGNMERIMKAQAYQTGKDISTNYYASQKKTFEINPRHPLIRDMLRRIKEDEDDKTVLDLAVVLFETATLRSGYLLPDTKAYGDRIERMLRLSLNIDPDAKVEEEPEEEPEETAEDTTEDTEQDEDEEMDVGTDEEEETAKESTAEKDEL

[1] = molecular target: T4, host proteins (proteome-wide) (Homo sapiens, UniProt A0AVT1); assay: 2D-TPP in U87 cells (proteome-wide); format: binding; settings: protein A0AVT1 (UBA6)
T4 construct: endogenous in cells; host or cells: U87 cells
T4 sequence (A0AVT1 1-1052): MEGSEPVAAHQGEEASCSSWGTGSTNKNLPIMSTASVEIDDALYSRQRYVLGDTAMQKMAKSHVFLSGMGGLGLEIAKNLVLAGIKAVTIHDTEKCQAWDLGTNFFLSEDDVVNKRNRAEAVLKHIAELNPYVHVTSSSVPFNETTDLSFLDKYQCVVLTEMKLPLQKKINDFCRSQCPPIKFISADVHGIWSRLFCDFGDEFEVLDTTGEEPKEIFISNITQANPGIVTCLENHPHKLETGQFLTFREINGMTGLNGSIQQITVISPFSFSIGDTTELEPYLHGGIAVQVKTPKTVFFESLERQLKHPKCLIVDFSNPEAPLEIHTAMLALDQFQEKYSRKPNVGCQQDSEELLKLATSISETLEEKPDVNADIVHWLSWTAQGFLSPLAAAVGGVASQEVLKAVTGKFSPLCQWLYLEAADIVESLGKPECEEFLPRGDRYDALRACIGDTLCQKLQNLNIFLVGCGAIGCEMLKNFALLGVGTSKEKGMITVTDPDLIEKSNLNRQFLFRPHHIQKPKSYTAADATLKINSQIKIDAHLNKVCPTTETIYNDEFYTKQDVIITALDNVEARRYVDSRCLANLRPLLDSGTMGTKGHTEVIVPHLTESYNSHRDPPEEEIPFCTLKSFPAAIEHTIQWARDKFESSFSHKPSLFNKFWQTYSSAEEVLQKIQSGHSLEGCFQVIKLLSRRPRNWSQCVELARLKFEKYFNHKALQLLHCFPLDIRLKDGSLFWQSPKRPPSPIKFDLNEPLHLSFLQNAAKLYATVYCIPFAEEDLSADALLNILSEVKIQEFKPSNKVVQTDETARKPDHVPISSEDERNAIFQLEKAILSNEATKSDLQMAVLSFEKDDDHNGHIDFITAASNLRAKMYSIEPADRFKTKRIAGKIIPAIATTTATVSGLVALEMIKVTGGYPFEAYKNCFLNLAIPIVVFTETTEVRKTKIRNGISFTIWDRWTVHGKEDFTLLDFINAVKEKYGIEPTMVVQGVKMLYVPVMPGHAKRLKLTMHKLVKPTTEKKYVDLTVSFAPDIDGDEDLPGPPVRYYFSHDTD

[2] = test system: host proteins (proteome-wide); assay: 2D-TPP in U87 cells (proteome-wide); format: binding, Homo sapiens; settings: protein A0A087WUL8 (NBPF19¦NBPF26¦NBPF1¦NBPF20¦NBPF8¦NBPF12¦NBPF14)
[3] = molecular target: T5, Hsp70 - HAZV NP interaction (Homo sapiens, UniProt P0DMV8); assay: Hsp70 immunoprecipitation in HAZV-infected Hek293T cells; format: cell-based; settings: HAZV MOI 1, 20 μM, 1 h, statistically not significant
T5 construct: endogenous in cells; host or cells: HEK293T cells infected with HAZV (MOI 1)
T5 sequence (P0DMV8 2-641): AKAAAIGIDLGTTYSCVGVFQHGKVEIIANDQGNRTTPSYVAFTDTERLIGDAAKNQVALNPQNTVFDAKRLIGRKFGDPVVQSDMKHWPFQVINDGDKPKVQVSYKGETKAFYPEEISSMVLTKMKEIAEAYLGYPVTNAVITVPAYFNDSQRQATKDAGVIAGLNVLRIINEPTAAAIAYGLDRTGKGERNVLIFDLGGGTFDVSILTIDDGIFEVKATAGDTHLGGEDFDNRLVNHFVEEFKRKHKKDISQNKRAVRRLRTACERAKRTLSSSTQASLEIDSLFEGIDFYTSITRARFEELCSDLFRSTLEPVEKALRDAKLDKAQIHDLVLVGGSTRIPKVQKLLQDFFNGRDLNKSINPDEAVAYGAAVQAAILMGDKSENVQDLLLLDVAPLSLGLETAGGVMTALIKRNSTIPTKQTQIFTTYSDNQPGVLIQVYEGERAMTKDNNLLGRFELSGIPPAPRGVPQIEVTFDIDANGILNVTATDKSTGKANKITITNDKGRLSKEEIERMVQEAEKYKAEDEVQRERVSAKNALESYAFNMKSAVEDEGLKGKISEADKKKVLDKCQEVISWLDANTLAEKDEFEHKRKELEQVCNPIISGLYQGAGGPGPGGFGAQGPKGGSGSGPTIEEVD

DNAJB11 = molecular target: T6, DNAJB11 (Homo sapiens, UniProt Q9UBS4); assay: 2D-TPP in U87 cells
T6 sequence (Q9UBS4 23-358): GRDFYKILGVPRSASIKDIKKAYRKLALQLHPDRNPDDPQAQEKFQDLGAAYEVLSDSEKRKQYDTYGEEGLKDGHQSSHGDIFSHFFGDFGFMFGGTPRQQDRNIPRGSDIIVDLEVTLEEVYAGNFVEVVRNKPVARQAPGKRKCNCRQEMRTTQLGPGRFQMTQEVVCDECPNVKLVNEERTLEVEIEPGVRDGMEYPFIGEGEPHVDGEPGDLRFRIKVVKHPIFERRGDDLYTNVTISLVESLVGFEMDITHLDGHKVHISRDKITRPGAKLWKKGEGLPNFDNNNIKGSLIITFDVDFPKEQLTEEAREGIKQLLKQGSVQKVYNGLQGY

T1 sequence (Q9Y4L1 33-999): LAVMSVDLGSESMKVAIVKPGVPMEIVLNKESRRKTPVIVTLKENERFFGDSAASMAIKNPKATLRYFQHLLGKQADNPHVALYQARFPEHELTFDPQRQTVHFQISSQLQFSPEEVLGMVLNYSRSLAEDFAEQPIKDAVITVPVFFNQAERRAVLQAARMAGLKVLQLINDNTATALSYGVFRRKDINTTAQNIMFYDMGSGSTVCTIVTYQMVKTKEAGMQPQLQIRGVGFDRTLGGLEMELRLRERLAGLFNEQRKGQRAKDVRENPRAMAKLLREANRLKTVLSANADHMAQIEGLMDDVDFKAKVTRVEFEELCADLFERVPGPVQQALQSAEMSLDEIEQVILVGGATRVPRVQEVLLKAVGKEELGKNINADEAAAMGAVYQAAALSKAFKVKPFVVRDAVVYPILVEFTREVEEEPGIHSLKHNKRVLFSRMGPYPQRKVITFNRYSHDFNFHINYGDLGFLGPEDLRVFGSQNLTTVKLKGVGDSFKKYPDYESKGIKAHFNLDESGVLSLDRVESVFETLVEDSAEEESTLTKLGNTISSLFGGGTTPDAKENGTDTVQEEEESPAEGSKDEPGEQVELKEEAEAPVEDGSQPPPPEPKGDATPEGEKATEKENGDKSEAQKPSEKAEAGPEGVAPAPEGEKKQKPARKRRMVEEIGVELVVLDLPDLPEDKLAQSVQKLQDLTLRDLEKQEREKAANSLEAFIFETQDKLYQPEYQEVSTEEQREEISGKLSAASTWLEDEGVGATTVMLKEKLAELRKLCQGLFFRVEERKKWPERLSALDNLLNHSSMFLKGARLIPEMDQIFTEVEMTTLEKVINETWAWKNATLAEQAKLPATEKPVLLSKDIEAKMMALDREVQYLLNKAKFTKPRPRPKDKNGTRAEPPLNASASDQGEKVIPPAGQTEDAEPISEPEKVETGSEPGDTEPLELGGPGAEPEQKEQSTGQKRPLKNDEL

CCOC(=O)c1cnn(-c2cccc3c2[nH]c(=O)n3C2CCN(C(=O)Nc3ccc(I)cc3)CC2)c1 [TH6744, ethyl 1-(1-(1-((4-iodophenyl)carbamoyl)piperidin-4-yl)-2-oxo-2,3-dihydro-1H-benzo[d]imidazol-4-yl)-1H-pyrazole-4-carboxylate]
EC50 (HYOU1): 10 µM | Hsp70 thermal stability (CETSA) (Hsp70): Hsp70 destabilization | thermal stability change of HSPA1A (HSPA1A): destabilized | EC50 (HSP90B1): 6.31 µM | EC50 ([1]; temperature 51, Set2): 0.89 µM | norm_rel_fc_protein_1_unmodified ([1]; temperature 51, dose 1, Set2): 1.349 | norm_rel_fc_protein_3_unmodified ([1]; temperature 51, dose 3, Set2): 1.572 | norm_rel_fc_protein_10_unmodified ([1]; temperature 51, dose 10, Set2): 1.5768 | norm_rel_fc_protein_30_unmodified ([1]; temperature 51, dose 30, Set2): 1.557 | pec50 ([2]; temperature 45, Set1): 5.615 | norm_rel_fc_protein_1_unmodified ([2]; temperature 45, dose 1, Set1): 0.9697 | norm_rel_fc_protein_3_unmodified ([2]; temperature 45, dose 3, Set1): 0.761 | norm_rel_fc_protein_10_unmodified ([2]; temperature 45, dose 10, Set1): 0.63 | norm_rel_fc_protein_30_unmodified ([2]; temperature 45, dose 30, Set1): 0.6272 | increase of HAZV NP interaction with Hsp70 (signal intensity) [3]: 2 fold | EC50 (DNAJB11): 7.94 µM
